Laboratory results reported in US5631275A, “Substituted benzenesulfonylureas and -thioureas, preparation processes and possible uses of pharmaceutical preparations based on these compounds” (Hoechst Aktiengesellschaft, priority 1993, dated 1997).

Experiments:
[1] = test system: papillary muscle of the guineapig; assay: Action potential duration on the papillary muscle of the guineapig; type: cell-based; details: test substance 2.2×10^-5 mol per liter, 30 minutes after the addition, control without test substance <40; for APD95 -HOE 234: action potential shortened by 1 μM rilmakalim (Hoe 234); for APD95 -DEO: action potential shortened by 2-deoxyglucose (DEO)
Excerpt: ATP deficiency states such as are observed during ischemia in the cardiac muscle cell lead to a shortening of the duration of action potential. They are one of the causes of so-called reentry arrhythmias, which can cause sudden cardiac death. Opening of ATP-sensitive K channels by the reduction in ATP is a cause of this.
A standard microelectrode technique is used for measurement of the action potential. For this, guineapigs of both sexes are sacrificed by a blow to the head, the hearts are removed and the papillary muscles are separated out and suspended in an organ bath. The organ bath is flushed with Ringer solution (0.9% NaCl, 0.048% KCl, 0.024% CaCl2, 0.02% NaHCO3 and 0.1% glucose) and gassed with a mixture of 95% oxygen and 5% carbon dioxide at a temperature of 36° C. The muscle is stimulated via an electrode with rectangular pulses of 1 V and 1 ms duration and a frequency of 2 Hz. The action potential is conducted and recorded through a glass microelectrode, which is punctured intracellularly and filled with […] solution. The substances to be tested were added to the Ringer solution in a concentration of 2.2×10^-5 mol per liter. The action potential is shown in amplified form on an oscilloscope using a Hugo Sachs amplifier. The duration of the action potential is determined at a repolarization degree of 95% (APD95). Shortenings in action potential are caused either by addition of a 1 μM strength solution of the potassium channel opener rilmakalim (Hoe 234) [W. Linz, E. Klaus, U. Albus, R. H. A. Becker, D. Mania, H. C. Englert, B. A. Scholkens Arzneimittelforschung/Drug Research, Volume 42 (II), 1992, pages 1180-1185] or by addition of 2-deoxyglucose (DEO). ATP deficiency states are caused in experimental physiology by 2-deoxyglucose by blockade of glucose metabolism. The action potential-shortening effect of these substances was prevented or reduced by the simultaneous dose of the test substances. The test substances were added to the bath solution as stock solutions in propanediol. The values stated relate to measurements 30 minutes after the addition. The APD95 in the presence of DEO or HOE 234 and in the absence of the test substance serves as a control.

[2] = test system: RINm5F cells; assay: Membrane potential on isolated β cells (RINm5F cells, whole cell patch clamp); type: cell-based; details: 10^-5 mol per liter, diazoxide (100 μmol) in bath, 34°±1° C., n = 6
Procedure: The action mechanism of hypoglycemic sulfonylureas is clarified in rough outlines. The β cells of the pancreas are the target organ, where increased secretion of the hypoglycemic hormone insulin occurs. The release of insulin is controlled by the cell membrane potential. Glihenclamide causes depolarization of the cell membrane, which promotes insulin release via an increased in-flow of calcium ions. The extent of this depolarization of the cell membrane ΔU was determined on RINm5F cells, a pancreas tumor cell line, for some of the compounds according to the invention. The action strength of a compound in this model predicts the extent of the hypoglycemic potential of this compound.
RINm5F cells were cultured at 37° C. in RPMI 1640 culture medium (flow), to which 11 mmol of glucose, 10% (volume/volume) of fetal calf serum, 2 mmol of glutamine and 50 μg/ml of gentamycin were added. For the studies, the cells were isolated by incubation (about 3 minutes) in a Ca^2+ -free medium containing 0.25% of trypsin and stored on ice.
Isolated RINm5F cells were introduced into a Plexiglas chamber on an inverse microscope fitted with a differential interference contrast lens. […] The cell potential was recorded in this whole cell configuration with the aid of a patch clamp amplifier (L/M EPC 7) and was measured by applying a potential ramp to the whole cell current. […]

Structure (SMILES)	APD95 -HOE 234 [1]	APD95 -DEO [1]	ΔU (depolarization of the cell membrane) [2]
CCC1=C(C)CN(C(=O)NCCc2ccc(OC)c(S(=O)(=O)NC(=S)NC)c2)C1=O [Example 1, 1-{2-Methoxy-5-[2-(3-ethyl-4-methyl-2-oxo-3-pyrrolinyl-1-carboxamido)-ethyl]-phenylsulfonyl-}3-methylthiourea]	119 ± 16 ms	60 ± 22 ms	2 mV
CCC1=C(C)CN(C(=O)NCCc2ccc(OC)c(S(=O)(=O)NC(=O)NC)c2)C1=O [Example 2, 1-{2-Methoxy-5-[2-(3-ethyl-4-methyl-2-oxo-3-pyrrolinyl-1-carboxamido)-ethyl]-phenylsulfonyl-}3-methylurea]	125 ms	110 ms	12 mV
